One data set relates to C57BL/6J mice. In words: Intramuscular OVA immunization of mice: serum antibodies and splenocyte cytokines. The class given is in vivo, mouse. The note with it: for serum anti-OVA IgG1 titer / OVA-specific IL-13 production by splenocytes: i.m. day 0 and day 10 with OVA; for serum anti-OVA IgG1 titer: serum day 17; for OVA-specific IL-13 production by splenocytes: splenocytes day 17, OVA 48 hours. As for the experimental part: Mice were immunized intramuscularly on day 0 and day 10 with K3 CpG (10 μg), 3′3′/2′3′-cGAMP (1 μg), c-di-GMP (1 μg), DMXAA (50 μg), or OVA (10 μg) comprising or not comprising K3+3′3′/2′3′-cGAMP/c-di-GMP/DMXAA. On day 17, OVA specific sera IgG1 and IgG2c were measured by ELISA.
(B—C) mice were immunized intramuscularly on day 0 and day 10 with K3 CpG (10 μg), 3′3′/2′3′-cGAMP (1 μg), c-di-GMP (1 μg), DMXAA (50 μg), or OVA (10 μg) comprising or not comprising K3+3′3′/2′3′-cGAMP/c-di-GMP/DMXAA. Splenocytes were stimulated for 48 hours with OVA (10 μg/ml) protein. Production of IFNγ and IL-13 was measured by ELISA.
On day 17, the splenocytes were isolated and stimulated for 48 hours with a MHC class I (OVA257) or a MHC class II (OVA323) specific OVA or an OVA peptide.
On day 17, OVA specific sera IgG1 and IgG2c were measured by ELISA as previously described [Kuroda et al., Immunity. (2011) 34; 514-526]. The secondary antibodies used in ELISA of IgG2c and IgG1 were horseradish peroxidase conjugate goat anti-mouse IgG2c and IgG1 (Bethyl Laboratories, Montgomery, Tex.). On day 17, splenocytes were collected to prepare a single cell suspension using gentle MACS dissociator (miltenyi Biotech, Gladbach, Germany). […] IFNγ and IL-13 production was measured by ELISA.

The test system of data set [1] is IRF3/7, STING, MyD88, IL-12, and type I IFN signaling. As for the experimental part:
The vertical axis of the left panel indicates the concentration of IFNγ (ng/ml), and the vertical axis of the right panel indicates the concentration of IL-13 (ng/ml). […] The splenocytes were stimulated for 48 hours with OVA.
On day 17, OVA specific sera IgG2c and IgG1 were measured by ELISA.
The vertical axis of the left panel indicates the concentration of IFNγ (ng/ml), and the vertical axis of the right panel indicates the concentration of IL-13 (ng/ml). […] (D) The splenocytes were stimulated for 48 hours with OVA proteins.
On day 17, OVA specific serum IgG2c and IgG1 were measured by ELISA. Further, splenocytes were stimulated for 48 hours with OVA to measure IFNγ production by ELISA.
On day 17, OVA specific sera IgG2c and IgG1 were measured by ELISA. Further, splenocytes were stimulated for 48 hours with an OVA protein to measure IFNγ production by ELISA.

The next data set concerns mice. In words: OVA specific serum IgE after immunization. The note with it: i.m. day 0 and day 10, serum day 17.

We go through three compounds from patent US11058758B2, “TH1-inducing adjuvant comprising combination of different nucleic acid adjuvants, and use of same” (National Institutes of Biomedical Innovation, Health and …, priority 2014, dated 2021).

For the compound `Nc1nc2c(ncn2[C@@H]2O[C@@H]3COP(=O)(O)O[C@H]4[C@@H](O)[C@H](n5cnc6c(=O)[nH]c(N)nc65)O[C@@H]4COP(=O)(O)O[C@H]3[C@H]2O)c(=O)[nH]1` [c-di-GMP], in the data set with C57BL/6J mice, the “serum anti-OVA IgG1 titer” value was “high” and the “OVA-specific IL-13 production by splenocytes” value (shortened to “OVA-specific IL-13 production”) is given as “production of OVA-specific IL-13”.

For the compound `Nc1nc2c(ncn2[C@@H]2O[C@@H]3COP(=O)(O)O[C@H]4[C@@H](O)[C@H](n5cnc6c(N)ncnc65)O[C@@H]4COP(=O)(O)O[C@H]3[C@H]2O)c(=O)[nH]1` [cGAMP, 3′3′-cGAMP], the adjuvant type result in the data set with C57BL/6J mice (OVA immunization, antibody and T cell responses) is on record as “type 2 adjuvant”. Besides, in the data set with C57BL/6J mice, the “serum anti-OVA IgG1 titer” value is listed as “high” and the “OVA-specific IL-13 production” value is “production of OVA-specific IL-13”. For the same compound, in data set [1] (IFNAR KO mice), the “dependency of Th2 responses on type I IFN signaling” value was “not dependent thereon” and the “dependency of induced antibody responses on type I IFN signaling” value was “dependent on type I IFN signaling”. In data set [1] (IRF3/7 DKO and MyD88 KO mice), the “dependency of induced T cell responses on IRF3/7 and MyD88” value is “partially dependent on IRF3/7 and surprisingly dependent on MyD88”. Also, the “dependency of induced antibody and T cell responses on STING” value in data set [1] (Tmem173gt mice) was “completely dependent on STING”. In the data set on mice, the “IgE of the serum in mice immunized with OVA” value was “induce IgE”.

For the compound `Cc1ccc2c(=O)c3cccc(CC(=O)O)c3oc2c1C` [DMXAA], in the data set on C57BL/6J mice, the “serum anti-OVA IgG1 titer” value was “high” and the “OVA-specific IL-13 production” value is reported as “production of OVA-specific IL-13”.
